Results published in PMC3770646, “Isolation of an Orally Active Insecticidal Toxin from the Venom of an Australian Tarantula” (PLoS ONE, 2013).
Read-outs that look alike come from different tables or passages of the source. Where a SMILES comes first, the peptide text is derived from it. Bridges are numbered along the chain shown (N, C = ends).

Experiments:
[1] = system: H. armigera; conditions: ref [61], cited from earlier work
From the text: Table 2 Comparison of OAIP-1 with pyrethroid insecticides. | column: Oral LD50 (nmol/g)

[2] = system: Helicoverpa armigera; assay: Assay of synergism of imidacloprid and sOAIP-1 in agar diet; format: in vivo; conditions: H. armigera fed 100 pmol of the single insecticide in agar diet, mean ±SEM of three replicates of 10
Description: (§1) For feeding assays, an agar-based insect diet was created based on literature information (Table S1). Instead of using a separate preparation as a vitamin supplement, the commercially available children's vitamin Pentavite (Bayer, Leverkusen, Germany) was added after the agar had cooled below 65°C. Mealworms were fed 100 µL of the agar diet, with or without 20 µL toxin (or water for untreated controls). For the choice test, the same size Petri dish was divided in half and 50 µL of either toxin-treated or untreated agar was pipetted onto each half and mortality was recorded after 48 h. Cotton bollworms (Helicoverpa armigera, Lepidoptera: Noctuidae) were fed 5 µL toxin (or water for untreated controls) in 20 µL of agar diet, and maintained in 12-well tissue culture dishes. For assays of synergism using 100 pmol imidacloprid (Sigma-Aldrich) and 100 pmol sOAIP-1, 20 µL of one toxin or 10 µL of each toxin was incorporated into the agar diet for H. armigera. After all the treated diet was consumed, untreated diet was supplied ad libitum.
In all experiments, the mortality of untreated insects was used to correct the data for mortality due to injection of toxin or incorporation in the diet. […]

[3] = system: mealworms (larval Tenebrio molitor); assay: Feeding assay, toxin in agar diet fed to mealworms; format: in vivo; conditions: corrected for control mortality, three replicates of 10
Description: Chicken feed was provided ad libitum for mealworm food. A Whatman filter paper saturated with distilled water was used to maintain humidity in all mealworm experiments except feeding assays, which used the synthetic orally active insecticidal peptide 1 (sOAIP-1) in the agar diet described below. The agar diet allowed a homogenous mixture of toxin and diet to be prepared so preferential feeding on untreated diet would not be possible. All insects were maintained at 24.5°C in the dark at ambient humidity in sterile Petri dishes.
as §1, with “For assays of synergism using 100 pmol imidacloprid (Sigma-Aldrich) and 100 pmol sOAIP-1, 20 µL of one toxin or 10 µL of each toxin was incorporated into the agar diet for H. armigera. After all the treated diet was consumed, untreated diet was supplied ad libitum.” left out

[4] = system: mealworms (larval Tenebrio molitor); assay: Feeding choice test, toxin-treated and untreated agar; format: in vivo
Description: as §1
In addition to toxicity assays, a choice test was conducted to determine whether sOAIP-1 is repellent. […] Conversely, if the toxin-treated agar was preferentially consumed, it might indicate that sOAIP-1 acts as an attractant.

[5] = In vitro stability in undiluted insect hemolymph; format: in vitro ADME, Helicoverpa armigera; conditions: undiluted H. armigera hemolymph, 30 µg peptide in 200 µL, ambient temperature (23°C), dark
Description: Fourth-instar H. armigera larvae were decapitated and the gut was removed using forceps. The carcasses were spun in a benchtop centrifuge (14,000 g for 10 min) to separate the hemolymph from exoskeleton. For each time point, 200 µL of undiluted hemolymph was mixed with 30 µg of sOAIP-1. The hemolymph/sOAIP-1 solution was maintained in the dark at room temperature, and immediately before RP-HPLC analysis the hemolymph/sOAIP-1 solution was again spun in a benchtop centrifuge (14,000 g for 10 min). After centrifugation, 30 µg of a control peptide, ω-HXTX-Hv1a, was added to aid quantification and the sample was filtered using a […] filter. The toxins were separated by RP-HPLC using a linear acetonitrile gradient (5–40% over 40 min), and the identity of each toxin was confirmed using mass spectrometry. The percentage of intact sOAIP-1 present at each time point was determined by comparing the area of the sOAIP-1 peak to that at zero time, both measured relative to the area of the ω-HXTX-Hv1a peak.

[6] = system: mealworms (larval Tenebrio molitor); assay: Injection of toxin into mealworms; format: in vivo; conditions: injection into metathoracic pleurite, corrected for control mortality, three replicates of 10
Description: Termites were fed a 20% α-cellulose matrix (Sigma-Aldrich, St. Louis, MO) mixed with water; the toxin was dissolved in water, and 20 µL was added to the cellulose matrix to a final concentration of 350 nmol/g, and then pipetted into Petri dishes. After the cellulose matrix had dried (to prevent termites from drowning in wet bait), nine worker termites and one soldier termite were added to each dish; each toxin dose was replicated three times. As a comparison, toxins were also injected into mealworms at a concentration of 350 nmol/g in three replicates of 10 insects.
Mealworms were purchased from Pisces Enterprises (Kenmore, QLD, Australia). Insects between 3rd and 4th instar (∼180 mg/individual) were used. For each mealworm, 2.6 µL of toxin diluted in ultrapure water was injected into the metathoracic pleurite. Injections were performed using a 29.5 gauge insulin syringe (B–D Ultra-Fine, Terumo Medical Corporation, Elkton, MD). Three replicates of 10 insects were used for each toxin concentration, and the same number of control insects were injected with ultrapure water and maintained under the same conditions.
Chicken feed was provided ad libitum for mealworm food. […] All insects were maintained at 24.5°C in the dark at ambient humidity in sterile Petri dishes. […]

[7] = pyrethroid-resistant strain BK99R9 (R)

Structure (SMILES)	Oral LD50 [1, 7]	Oral LD50 ([1]; susceptible strain BK77 (S))	mortality at 48 h [2]	other results
Cc1c(COC(=O)[C@@H]2[C@H](/C=C(\Cl)C(F)(F)F)C2(C)C)cccc1-c1ccccc1 (racemic) [Bifenthrin]	20.6 nmol/g	1.1 nmol/g		
CC1(C)[C@H](C(=O)O[C@H](C#N)c2cccc(Oc3ccccc3)c2)[C@@H]1C=C(Br)Br [Deltamethrin]	0.46 nmol/g	0.35 nmol/g		
CCOc1ccc(C(C)(C)COCc2cccc(Oc3ccccc3)c2)cc1 [Etofenprox]	55.9 nmol/g	0.31 nmol/g		
CC(C)C(C(=O)OC(C#N)c1cccc(Oc2ccccc2)c1)c1ccc(Cl)cc1 (centres unmarked) [Fenvalerate]	41.9 nmol/g	7.8 nmol/g		
O=[N+]([O-])NC1=NCCN1Cc1ccc(Cl)nc1 [imidacloprid]			31±3%	
CC[C@H](C)[C@@H]1NC(=O)[C@@H]2CSSC[C@H](NC(=O)[C@@H](N)CC(=O)O)C(=O)NCC(=O)N[C@@H](Cc3c[nH]cn3)C(=O)N[C@@H](CC(C)C)C(=O)N[C@@H](Cc3c[nH]cn3)C(=O)N[C@@H](CC(=O)O)C(=O)N3CCC[C@H]3C(=O)N[C@H]3CSSC[C@H](NC(=O)[C@H](CCC(N)=O)NC(=O)[C@H](CC(C)C)NC(=O)CNC1=O)C(=O)N[C@@H](CCCNC(=N)N)C(=O)N[C@@H](Cc1ccc(O)cc1)C(=O)NCC(=O)N[C@@H](CCCCN)C(=O)N[C@H](C(=O)N[C@@H](CC(C)C)C(=O)N[C@H](C(=O)N[C@@H](CCCNC(=N)N)C(=O)O)C(C)C)CSSC[C@H](NC(=O)[C@H]([C@@H](C)O)NC(=O)[C@H](CCCNC(=N)N)NC(=O)[C@H](Cc1c[nH]cn1)NC(=O)CNC(=O)[C@@H]1CCCN1C(=O)[C@H](CCCNC(=N)N)NC(=O)[C@H](CC(=O)O)NC(=O)[C@H](CC(N)=O)NC(=O)[C@@H]1CCCN1C3=O)C(=O)N2 [sOAIP-1] (H-DCGHLHDPCPNDRPGHRTCCIGLQCRYGKCLVR-OH; disulfide 2-20, 9-25, 19-30; N-terminus and C-terminus assumed)			4±3%	LD50, oral administration [3]: 170.5 ± 0.2 nmol/g; mortality at 48 h in choice test ([4]; mealworms offered toxin-treated and untreated agar, 1 pmol toxin, three replicates of 10): no mortality; repellent or attractant effect ([4]; mealworms, choice test compared with non-choice test): neither a repellent that repels insects nor an attractant; remaining at 24 h ([5]; cerebrospinal or other body fluid, 24 h, RP-HPLC peak area relative to ω-HXTX-Hv1a, read-out: remained intact): ~40%; metabolised at 72 h ([5]; cerebrospinal or other body fluid, 72 h, RP-HPLC peak area relative to ω-HXTX-Hv1a, read-out: peptide degraded): 90%; remained intact ([5]; one-week incubation, RP-HPLC): none remained intact; LD50, injected toxin [6]: 1.84 ± 0.8 nmol/g
